Test results as given in PubChem BioAssay (NCI).
Several values for one entry are separate records, joined by “and”; a condition that tells them apart may be missing. Equal values may be shown once.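 All cell lines were grown in 96-well plates and treated with compound for 48 hours. GI50 marks 50% less growth. Definition used: TGI = concentration required for complete inhibition of growth.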

Experiments:
Assay in all cases: NCI-60 cell line screen, 48 h
786-0 renal = system: 786-0 renal
A498 renal = system: A498 renal
A549 NSCLC = system: A549 NSCLC
ACHN renal = system: ACHN renal
BT-549 breast = system: BT-549 breast
CAKI-1 renal = system: CAKI-1 renal
CCRF-CEM leukemia = system: CCRF-CEM leukemia
COLO 205 colon = system: COLO 205 colon
DU-145 prostate = system: DU-145 prostate
EKVX NSCLC = system: EKVX NSCLC
HCC-2998 colon = system: HCC-2998 colon
HCT-116 colon = system: HCT-116 colon
HCT-15 colon = system: HCT-15 colon
HL-60(TB) leukemia = system: HL-60(TB) leukemia
HOP-62 NSCLC = system: HOP-62 NSCLC
HOP-92 NSCLC = system: HOP-92 NSCLC
HS 578T breast = system: HS 578T breast
HT29 colon = system: HT29 colon
IGROV1 ovarian = system: IGROV1 ovarian
K-562 leukemia = system: K-562 leukemia
KM12 colon = system: KM12 colon
LOX IMVI melanoma = system: LOX IMVI melanoma
M14 melanoma = system: M14 melanoma
MALME-3M melanoma = system: MALME-3M melanoma
MCF7 breast = system: MCF7 breast
MDA-MB-231 breast = system: MDA-MB-231 breast
MDA-MB-435 = system: MDA-MB-435
MOLT-4 leukemia = system: MOLT-4 leukemia
NCI-H226 lung = system: NCI-H226 lung
NCI-H23 lung = system: NCI-H23 lung
NCI-H460 lung = system: NCI-H460 lung
NCI-H522 lung = system: NCI-H522 lung
NCI/ADR-RES ovarian = system: NCI/ADR-RES ovarian
OVCAR-3 ovarian = system: OVCAR-3 ovarian
OVCAR-4 ovarian = system: OVCAR-4 ovarian
OVCAR-5 ovarian = system: OVCAR-5 ovarian
OVCAR-8 ovarian = system: OVCAR-8 ovarian
PC-3 prostate = system: PC-3 prostate
RPMI-8226 leukemia = system: RPMI-8226 leukemia
RXF 393 renal = system: RXF 393 renal
SF-268 CNS = system: SF-268 CNS
SF-295 CNS = system: SF-295 CNS
SF-539 CNS = system: SF-539 CNS
SK-MEL-2 melanoma = system: SK-MEL-2 melanoma
SK-MEL-28 melanoma = system: SK-MEL-28 melanoma
SK-MEL-5 melanoma = system: SK-MEL-5 melanoma
SK-OV-3 ovarian = system: SK-OV-3 ovarian
SN12C renal = system: SN12C renal
SNB-19 CNS = system: SNB-19 CNS
SNB-75 CNS = system: SNB-75 CNS
SW-620 colon = system: SW-620 colon
T-47D breast = system: T-47D breast
TK-10 renal = system: TK-10 renal
U251 CNS = system: U251 CNS
UACC-257 melanoma = system: UACC-257 melanoma
UACC-62 melanoma = system: UACC-62 melanoma
UO-31 renal = system: UO-31 renal
SR leukemia = system: SR leukemia

Compound: COc1nc(N)nc2c1ncn2C1OC(CO)C(O)C1O (stereo not drawn)
- GI50 (786-0 renal): > 5000 µM
- TGI (786-0 renal): > 5000 µM
- GI50 (A498 renal): > 5000 µM
- TGI (A498 renal): > 5000 µM
- GI50 (A549 NSCLC): 701 µM
- TGI (A549 NSCLC): > 5000 µM
- GI50 (ACHN renal): 723 µM
- TGI (ACHN renal): > 5000 µM
- GI50 (BT-549 breast): > 5000 µM
- TGI (BT-549 breast): > 5000 µM
- GI50 (CAKI-1 renal): 3120 µM
- TGI (CAKI-1 renal): > 5000 µM
- GI50 (CCRF-CEM leukemia): 8.46 µM
- GI50 (COLO 205 colon): 520 µM
- TGI (COLO 205 colon): 2250 µM
- GI50 (DU-145 prostate): > 5000 µM
- TGI (DU-145 prostate): > 5000 µM
- GI50 (EKVX NSCLC): > 5000 µM
- TGI (EKVX NSCLC): > 5000 µM
- GI50 (HCC-2998 colon): > 5000 µM
- TGI (HCC-2998 colon): > 5000 µM
- GI50 (HCT-116 colon): > 5000 µM
- TGI (HCT-116 colon): > 5000 µM
- GI50 (HCT-15 colon): > 5000 µM
- TGI (HCT-15 colon): > 5000 µM
- GI50 (HL-60(TB) leukemia): 1190 µM
- TGI (HL-60(TB) leukemia): > 5000 µM
- GI50 (HOP-62 NSCLC): 2010 µM
- TGI (HOP-62 NSCLC): > 5000 µM
- GI50 (HOP-92 NSCLC): 2640 µM
- TGI (HOP-92 NSCLC): > 5000 µM
- GI50 (HS 578T breast): > 5000 µM
- TGI (HS 578T breast): > 5000 µM
- GI50 (HT29 colon): > 5000 µM
- TGI (HT29 colon): > 5000 µM
- TGI (IGROV1 ovarian): > 5000 µM
- GI50 (K-562 leukemia): > 5000 µM
- TGI (K-562 leukemia): > 5000 µM
- GI50 (KM12 colon): > 5000 µM
- TGI (KM12 colon): > 5000 µM
- GI50 (LOX IMVI melanoma): 3540 µM
- TGI (LOX IMVI melanoma): > 5000 µM
- GI50 (M14 melanoma): > 5000 µM
- TGI (M14 melanoma): > 5000 µM
- GI50 (MALME-3M melanoma): 1150 µM
- TGI (MALME-3M melanoma): > 5000 µM
- GI50 (MCF7 breast): 3800 µM
- TGI (MCF7 breast): > 5000 µM
- GI50 (MDA-MB-231 breast): > 5000 µM
- TGI (MDA-MB-231 breast): > 5000 µM
- GI50 (MDA-MB-435): > 5000 µM
- TGI (MDA-MB-435): > 5000 µM
- GI50 (MOLT-4 leukemia): 5.7 µM and 19.5 µM
- TGI (MOLT-4 leukemia): 2260 µM
- GI50 (NCI-H226 lung): > 5000 µM
- TGI (NCI-H226 lung): > 5000 µM
- GI50 (NCI-H23 lung): 909 µM
- TGI (NCI-H23 lung): > 5000 µM
- GI50 (NCI-H460 lung): 1650 µM
- TGI (NCI-H460 lung): > 5000 µM
- GI50 (NCI-H522 lung): > 5000 µM
- TGI (NCI-H522 lung): > 5000 µM
- GI50 (NCI/ADR-RES ovarian): > 5000 µM
- TGI (NCI/ADR-RES ovarian): > 5000 µM
- GI50 (OVCAR-3 ovarian): > 5000 µM
- TGI (OVCAR-3 ovarian): > 5000 µM
- GI50 (OVCAR-4 ovarian): > 5000 µM
- TGI (OVCAR-4 ovarian): > 5000 µM
- GI50 (OVCAR-5 ovarian): > 5000 µM
- TGI (OVCAR-5 ovarian): > 5000 µM
- GI50 (OVCAR-8 ovarian): > 5000 µM
- TGI (OVCAR-8 ovarian): > 5000 µM
- GI50 (PC-3 prostate): > 5000 µM
- TGI (PC-3 prostate): > 5000 µM
- GI50 (RPMI-8226 leukemia): 3580 µM
- TGI (RPMI-8226 leukemia): > 5000 µM
- GI50 (RXF 393 renal): 2.32 µM
- GI50 (SF-268 CNS): > 5000 µM
- TGI (SF-268 CNS): > 5000 µM
- GI50 (SF-295 CNS): > 5000 µM
- TGI (SF-295 CNS): > 5000 µM
- GI50 (SF-539 CNS): 3800 µM
- TGI (SF-539 CNS): > 5000 µM
- GI50 (SK-MEL-2 melanoma): 2570 µM
- TGI (SK-MEL-2 melanoma): > 5000 µM
- GI50 (SK-MEL-28 melanoma): 2280 µM
- TGI (SK-MEL-28 melanoma): > 5000 µM
- GI50 (SK-MEL-5 melanoma): 164 µM
- TGI (SK-MEL-5 melanoma): > 5000 µM
- GI50 (SK-OV-3 ovarian): 2430 µM
- TGI (SK-OV-3 ovarian): > 5000 µM
- GI50 (SN12C renal): 3280 µM
- TGI (SN12C renal): > 5000 µM
- GI50 (SNB-19 CNS): > 5000 µM
- TGI (SNB-19 CNS): > 5000 µM
- GI50 (SNB-75 CNS): > 5000 µM
- TGI (SNB-75 CNS): > 5000 µM
- GI50 (SW-620 colon): > 5000 µM
- TGI (SW-620 colon): > 5000 µM
- GI50 (T-47D breast): > 5000 µM
- TGI (T-47D breast): > 5000 µM
- GI50 (TK-10 renal): > 5000 µM
- TGI (TK-10 renal): > 5000 µM
- GI50 (U251 CNS): > 5000 µM
- TGI (U251 CNS): > 5000 µM
- TGI (UACC-257 melanoma): > 5000 µM
- GI50 (UACC-62 melanoma): > 5000 µM
- TGI (UACC-62 melanoma): > 5000 µM
- GI50 (UO-31 renal): > 5000 µM
- TGI (UO-31 renal): > 5000 µM

Compound: O=c1c(Cl)c(Cl)c(=O)c2sc3cc(Cl)ccc3[nH]c1=2
- TGI (786-0 renal): > 100 µM
- TGI (A498 renal): > 100 µM
- TGI (A549 NSCLC): > 100 µM
- TGI (ACHN renal): > 100 µM
- TGI (CAKI-1 renal): > 100 µM
- TGI (COLO 205 colon): > 100 µM
- TGI (DU-145 prostate): > 100 µM
- TGI (EKVX NSCLC): 28.7 µM
- TGI (HCT-116 colon): > 100 µM
- TGI (HCT-15 colon): > 100 µM
- TGI (HL-60(TB) leukemia): 23.7 µM
- TGI (HOP-62 NSCLC): > 100 µM
- TGI (HOP-92 NSCLC): 33.4 µM
- TGI (HS 578T breast): > 100 µM
- TGI (HT29 colon): > 100 µM
- TGI (IGROV1 ovarian): > 100 µM
- TGI (K-562 leukemia): 34.6 µM
- TGI (KM12 colon): > 100 µM
- TGI (M14 melanoma): > 100 µM
- TGI (MALME-3M melanoma): > 100 µM
- TGI (MCF7 breast): > 100 µM
- TGI (MDA-MB-231 breast): 7.71 µM
- TGI (MDA-MB-435): > 100 µM
- TGI (MOLT-4 leukemia): 14.5 µM
- TGI (NCI-H226 lung): > 100 µM
- TGI (NCI-H23 lung): > 100 µM
- TGI (NCI-H460 lung): > 100 µM
- TGI (NCI-H522 lung): 35.2 µM
- TGI (NCI/ADR-RES ovarian): 20.1 µM
- TGI (OVCAR-3 ovarian): 30.7 µM
- TGI (OVCAR-4 ovarian): 22 µM
- TGI (OVCAR-5 ovarian): > 100 µM
- TGI (OVCAR-8 ovarian): 35 µM
- TGI (PC-3 prostate): > 100 µM
- TGI (RPMI-8226 leukemia): 17.2 µM
- TGI (RXF 393 renal): > 100 µM
- TGI (SF-268 CNS): > 100 µM
- TGI (SF-295 CNS): > 100 µM
- TGI (SF-539 CNS): > 100 µM
- TGI (SK-MEL-2 melanoma): > 100 µM
- TGI (SK-MEL-28 melanoma): > 100 µM
- TGI (SK-MEL-5 melanoma): > 100 µM
- TGI (SK-OV-3 ovarian): > 100 µM
- TGI (SNB-19 CNS): > 100 µM
- TGI (SNB-75 CNS): > 100 µM
- TGI (SR leukemia): 21.5 µM
- TGI (SW-620 colon): 52.1 µM
- TGI (T-47D breast): > 100 µM
- TGI (TK-10 renal): > 100 µM
- TGI (U251 CNS): > 100 µM
- TGI (UACC-257 melanoma): 35.3 µM
- TGI (UACC-62 melanoma): > 100 µM
- TGI (UO-31 renal): 36 µM
